Positions of bridges follow the written chain, without caps; N, C: chain ends. Non-standard residues stand in square brackets, D forms with d. Residues, ends and D or L forms follow the SMILES beside them. ξ: configuration not given here. *: point of attachment. Hexanoyl(4ξ-Me) = CCC(C)CCC(=O)*; dOrn = NCCC[C@@H](N)C(=O)O; Orn = NCCC[C@H](N)C(=O)O
Key:
[1] = test system: E. coli ATCC 25922; test: Neutropenic mouse thigh infection model; assay type: in vivo, Escherichia coli
Description: In vivo activities of brevicidine and laterocidine were tested using the mouse thigh infection model. Animal studies were performed by Pharmacology Discovery Services Taiwan Ltd. (Taipei, Taiwan) in general accordance with standard guidelines on animal welfare in an AAALAC-accredited facility. The protocol was reviewed and approved by the Institutional Animal Care and Use Committee. Groups of five female specific-pathogen-free ICR (CD-1) mice weighing 22±2 g (˜5 weeks of age) were used. Animals were immunosuppressed with two intraperitoneal injections of cyclophosphamide, the first at 150 mg/kg 4 d before infection (day −4) and the second at 100 mg/kg 1 d before infection (day −1). On day 0, animals were inoculated intramuscularly (0.1 ml/thigh) in the right thigh with an E. coli ATCC 25922 suspension. Vehicle (10% DMSO, 1% Tween 80, 0.9% NaCl) and antibiotics were then subcutaneously injected 2 h and 8 h later. Due to limited amount of compounds 1-2, only one concentration of 1(30 mg/kg) or 2 (15 mg/kg) was used in this study. At 26 h after inoculation, animals were euthanized by CO2 asphyxiation before the muscle of the right thigh was harvested from each test animal. The removed muscle was homogenized in 5 mL of PBS, pH 7.4, with a polytron homogenizer. Homogenates in the amount of 0.1 mL were used for serial tenfold dilutions and plated onto a nutrient agar medium for colony count (c.f.u./g) determination.

[2] = test system: E. coli Top10; test: Bacterial growth kinetics; assay type: cell-based, Escherichia coli; settings: E. coli cells exposed to compound
Description: A fresh single colony of E. coli Top10 was inoculated into MHB (5 mL) and grown with shaking at 225 rpm overnight. The bacteria were diluted to 1×10^5 c.f.u./mL in fresh MHB, grown […] to early log-phase (OD=0.15) and treated with the antibiotics of interest in the wells of a 96-well plate. Final antibiotic concentrations varied from 1×MIC to 8×MIC. The plate was then incubated at 30° C. overnight, with OD 600 measurements taken every 30 seconds.

## CCC(C)CCC(=O)N[C@H](CC(N)=O)C(=O)N[C@H](Cc1ccc(O)cc1)C(=O)N[C@H](Cc1c[nH]c2ccccc12)C(=O)N[C@H](CCCN)C(=O)N[C@@H](CCCN)C(=O)NCC(=O)N[C@H](CCCN)C(=O)N[C@@H](Cc1c[nH]c2ccccc12)C(=O)N[C@@H]1C(=O)N[C@@H]([C@@H](C)CC)C(=O)NCC(=O)N[C@H](CO)C(=O)O[C@@H]1C (stereo partly drawn) [Compound 1, 4-Methyl-Hexanoyl-D-Asn-D-Tyr-D-Trp-D-Orn-Orn-Gly-D-Orn-Trp-Thr-Ile-Gly-Ser (cyclized via lactone formation between Thr and the C-terminus)] ({Hexanoyl(4ξ-Me)}-[dN][dY][dW][dOrn][Orn]G[dOrn]WTIG[dS]; ester 9-C)
[1]; brevicidine 30 mg/kg or laterocidine 15 mg/kg, 2 times, after 26 h
  bactericidal efficacy in mouse thigh infection (viable bacteria): reduced numbers of viable bacteria
[1]; mice, 30 mg/kg subcutaneously, two doses, at 24 h
  reduction of c.fu. in thigh compared to the vehicle control: 5 log10
[2]
  time of growth at a reduced rate before steady decrease in cell count: 30 min

— patent US10738093B2, “Discovery of cationic nonribosomal peptides as Gram-negative antibiotics through global genome mining” (The Hong Kong University of Science and Technology, priority 2018, dated 2020)
